Patent US10908153B2, “Pseudomonas aeruginosa inhibitor compounds” (priority 2015, dated 2021)

Target: T1, PscE-PscG interaction (Pseudomonas aeruginosa, UniProt P95435+Q9I317)
T1 construct: made in house; host or cells: E. coli
Assay: ELISA test of inhibition of the PscE-PscG interaction
Assay type: binding
Details: for PscE-PscG at 50 μM: inhibition by new synthetic analogues at 50 μM, PscG 2.2 μM, PscE solution 3 μM; for inhibition at 50 µM: 4 h, read-out: PscE-PscG at 50 μM; for inhibitory effect compared with clioquinol: ELISA test, 50 μM, Table 2; for inhibition at 25 µM: read-out: % inhibition PscE-PscG at 50 μm
Procedure: 50 μL of PscG protein at 1 μM (for screening libraries) or 2.2 μM (for screening newly synthesized molecules) is incubated in a NUNC 96-well plate for 8 h at 4° C. The wells are washed three times with 200 μL of 1× PBS/0.1% Tween20®. The wells are treated overnight at 4° C. with 200 μL of a 5% milk solution in 1× PBS/0.1% Tween20®. The solution is then discarded, and the plate is drained dry.
The test is carried out as follows:
Negative control (lowest signal level): 100 μL of buffer ([…] Tris-HCl, 250 mM NaCl, pH 8.0);
Positive control (highest signal level): 50 μL of buffer and 50 μL of a test solution at 25 (library screening) or 3 μM (screening of analogue molecules) of the PscE protein;
Test of the inhibitors: 40 μL buffer, 50 μL of a solution at 25 μM (library screening) or 3 μM (screening of analogue molecules) of PscE protein and 10 μL of the solution containing the inhibitor to be tested.
The solutions are left for 4 h at room temperature.
The wells are washed three times with 200 μL of 1× PBS/0.1% Tween20®. The anti-PscE antibody diluted to 1:2,000 in 1× PBS/0.1% Tween20®, 50 μL, is added and the whole is left 2 h at room temperature. The wells are washed three times with 200 μL of 1× PBS/0.1% Tween20®. The HRP-conjugated anti-mouse antibody is diluted to 1:5,000 in 1× PBS/0.1% Tween20® and 50 μL is added and left for 2 h at room temperature. The wells are washed three times with 200 μL of 1× PBS/0.1% Tween20®.
The ELISA test is developed by adding 50 μL of TMB reagent followed by incubation for 15 minutes at room temperature in the dark. The reaction is stopped by adding 50 μL of 2N HCl. The plate is read at 450 nm.

T1 sequence (Q9I317 whole entry): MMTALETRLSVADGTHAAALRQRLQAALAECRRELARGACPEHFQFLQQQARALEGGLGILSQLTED
T1 sequence (P95435 whole entry): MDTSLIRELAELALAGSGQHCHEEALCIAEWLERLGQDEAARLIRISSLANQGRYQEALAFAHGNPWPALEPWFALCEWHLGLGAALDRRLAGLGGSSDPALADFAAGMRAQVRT

SMILES | inhibition at 50 µM [%] | inhibitory effect compared with clioquinol | also measured
[N-]=[N+]=NCCCCOCCCc1ccc[n+](CCCCCCCCOCCCc2cccnc2)c1 [molecule 20, 3-(3-(4-azidobutoxy)propyl)-1-(8-(3-(pyridin-3-yl)propoxy)octyl)pyridinium chloride] |  |  | PscE-PscG at 50 μM: no inhibition
[N-]=[N+]=NCCCCCCCCCCCCOCCCc1ccc[n+](CCCCCCCCOCCCc2cccnc2)c1 [molecule 31, 3-(3-(12-azidododecyloxy)propyl)-1-(8-(3-(pyridin-3-yl)propoxy)octyl)pyridinium chloride] | 82.9 | superior to clioquinol | 
[N-]=[N+]=NCCCCCCCCCCOCCCc1ccc[n+](CCCCCCCCCCOCCCc2cccnc2)c1 [molecule 30, 3-(3-(10-azidodecyloxy)propyl)-1-(10-(3-(pyridin-3-yl)propoxy)decyl)pyridinium chloride] | 52.8 | superior to clioquinol | 
CC(=O)Oc1c(-c2cn(CCCCCCCCCCCCOCCCc3ccc[n+](CCCCCCCCOCCCc4cccnc4)c3)nn2)cc(Cl)c2cccnc12 [molecule 49, 3-(3-(12-(4-(8-acetoxy-5-chloroquinolin-7-yl)-1H-1,2,3-triazol-1-yl)dodecyloxy)propyl)-1-(8-(3-(pyridin-3-yl)propoxy)octyl)pyridinium chloride] | 69.8 | superior to clioquinol | 
CC(=O)Oc1c(-c2cn(CCCCOCCCc3ccc[n+](CCCCOCCCc4cccnc4)c3)nn2)cc(Cl)c2cccnc12 [molecule 35, 3-(3-(4-(4-(8-acetoxy-5-chloroquinolin-7-yl)-1H-1,2,3-triazol-1-yl)butoxy)propyl)-1-(4-(3-(pyridin-3-yl)propoxy)butyl)pyridinium chloride] | 29.8 |  | 
CC(=O)Oc1c(-c2cn(CCCCCCCCCCCCOCCCc3ccc[n+](CCCCOCCCc4cccnc4)c3)nn2)cc(Cl)c2cccnc12 [molecule 44, 3-(3-(12-(4-(8-acetoxy-5-chloroquinolin-7-yl)-1H-1,2,3-triazol-1-yl)dodecyloxy)propyl)-1-(4-(3-(pyridin-3-yl)propoxy)butyl)pyridinium chloride] | 33.4 |  | 
[N-]=[N+]=NCCCCCCOCCCc1ccc[n+](CCCCCCCCOCCCc2cccnc2)c1 [molecule 22, 3-(3-(6-azidohexyloxy)propyl)-1-(8-(3-(pyridin-3-yl)propoxy)octyl)pyridinium chloride] | 88.8 | superior to clioquinol | 
Oc1c(I)cc(Cl)c2cccnc12 [Clioquinol, reference compound] |  |  | IC50: 5 µM; PscE-PscG at 50 μM (240 min): 45.2%; inhibition at 25 µM: 93.7%
[N-]=[N+]=NCCCCCCCCCCCCOCCCc1ccc[n+](CCCCCCCCCCOCCCc2cccnc2)c1 [molecule 33, 3-(3-(12-azidododecyloxy)propyl)-1-(10-(3-(pyridin-3-yl)propoxy)decyl)pyridinium chloride] | 54.2 | superior to clioquinol | 
CC(=O)Oc1c(-c2cn(CCCCCCOCCCc3ccc[n+](CCCCCCCCOCCCc4cccnc4)c3)nn2)cc(Cl)c2cccnc12 [molecule 40, 3-(3-(6-(4-(8-acetoxy-5-chloroquinolin-7-yl)-1H-1,2,3-triazol-1-yl)hexyloxy)propyl)-1-(8-(3-(pyridin-3-yl)propoxy)octyl)pyridinium chloride] | 87.2 | superior to clioquinol | 
[N-]=[N+]=NCCCCCCOCCCc1ccc[n+](CCCCCCCCCCOCCCc2cccnc2)c1 [molecule 27, 3-(3-(6-azidohexyloxy)propyl)-1-(10-(3-(pyridin-3-yl)propoxy)decyl)pyridinium chloride] | 39.6 |  | 
CC1(C)CC[C@]2(C(=O)O)CC[C@]3(C)C(=CC[C@@H]4[C@@]5(C)CC[C@H](O)[C@@](C)(CO)[C@@H]5CC[C@]43C)[C@@H]2C1 [Hederagenin, reference compound] |  |  | inhibition at 25 µM: 58%
NC(CO)C(=O)NNCc1ccc(O)c(O)c1O (stereo not shown) [Benserazide, reference compound] |  |  | IC50: 11 µM; inhibition at 25 µM: 86.3%
[N-]=[N+]=NCCCCCCCCCCOCCCc1ccc[n+](CCCCCCOCCCc2cccnc2)c1 [molecule 24, 3-(3-(10-azidodecyloxy)propyl)-1-(6-(3-(pyridin-3-yl)propoxy)hexyl)pyridinium chloride] | 38.6 |  | 
[N-]=[N+]=NCCCCCCOCCCc1ccc[n+](CCCCCCCCCCCCOCCCc2cccnc2)c1 [molecule 28, 3-(3-(6-azidohexyloxy)propyl)-1-(12-(3-(pyridin-3-yl)propoxy)dodecyl)pyridinium chloride] | 37.8 |  | 
CC(=O)Oc1c(-c2cn(CCCCCCOCCCc3ccc[n+](CCCCCCCCCCCCOCCCc4cccnc4)c3)nn2)cc(Cl)c2cccnc12 [molecule 46, 3-(3-(6-(4-(8-acetoxy-5-chloroquinolin-7-yl)-1H-1,2,3-triazol-1-yl)hexyloxy)propyl)-1-(12-(3-(pyridin-3-yl)propoxy)dodecyl)pyridinium chloride] |  |  | PscE-PscG at 50 μM: no inhibition
[N-]=[N+]=NCCCCCCOCCCc1ccc[n+](CCCCOCCCc2cccnc2)c1 [molecule 19, 3-(3-(6-azidohexyloxy)propyl)-1-(4-(3-(pyridin-3-yl)propoxy)butyl)pyridinium chloride] | 19.8 |  | 
CC(=O)Oc1c(-c2cn(CCCCCCOCCCc3ccc[n+](CCCCOCCCc4cccnc4)c3)nn2)cc(Cl)c2cccnc12 [molecule 37, 3-(3-(6-(4-(8-acetoxy-5-chloroquinolin-7-yl)-1H-1,2,3-triazol-1-yl)hexyloxy)propyl)-1-(4-(3-(pyridin-3-yl)propoxy)butyl)pyridinium chloride] | 92.5 | superior to clioquinol | 
CC(=O)Oc1c(-c2cn(CCCCCCCCCCOCCCc3ccc[n+](CCCCCCCCCCOCCCc4cccnc4)c3)nn2)cc(Cl)c2cccnc12 [molecule 48, 3-(3-(10-(4-(8-acetoxy-5-chloroquinolin-7-yl)-1H-1,2,3-triazol-1-yl)decyloxy)propyl)-1-(10-(3-(pyridin-3-yl)propoxy)decyl)pyridinium chloride] | 72.3 | superior to clioquinol | 
[N-]=[N+]=NCCCCOCCCc1ccc[n+](CCCCOCCCc2cccnc2)c1 [molecule 17, 3-(3-(4-azidobutoxy)propyl)-1-(4-(3-(pyridin-3-yl)propoxy)butyl)pyridinium chloride] |  |  | PscE-PscG at 50 μM: no inhibition
[N-]=[N+]=NCCCCOCCCc1ccc[n+](CCCCCCOCCCc2cccnc2)c1 [molecule 18, 3-(3-(4-azidobutoxy)propyl)-1-(6-(3-(pyridin-3-yl)propoxy)hexyl)pyridinium chloride] |  |  | PscE-PscG at 50 μM: no inhibition
O=C(O)CN(CCN(CC(=O)O)CC(=O)O)CCN(CC(=O)O)CC(=O)O [Pentetic acid, reference compound] |  |  | % inhibition PscE-PscG at 50 μm (primary screening of libraries, 50 μm compound, PscG 1 μM, PscE solution 25 μM): 94%
CC(=O)Oc1c(-c2cn(CCCCCCCCCCCCOCCCc3ccc[n+](CCCCCCCCCCCCOCCCc4cccnc4)c3)nn2)cc(Cl)c2cccnc12 [molecule 52, 3-(3-(12-(4-(8-acetoxy-5-chloroquinolin-7-yl)-1H-1,2,3-triazol-1-yl)dodecyloxy)propyl)-1-(12-(3-(pyridin-3-yl)propoxy)dodecyl)pyridinium chloride] | 3.4 |  | 
